Some results are limits rather than exact numbers.

The results in this text go back to EP0429304A2, “Pyridone-carboxylic acid derivatives and their use as veterinary medicines” (SHIONOGI SEIYAKU KABUSHIKI KAISHA trading under the name of …, priority 1989, dated 1991).

Common to all, as to test: In vitro sensitivity test (liquid dilution method)
Common to all, as to assay type: cell-based
Details in all cases: 37°C, 7 days

Assay [1] has as its system Mycoplasma synoviae (MS) 1853. An outline of the steps:
(§1)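 MS (liquid dilution): Frey medium + 12 % pig-serum + 0.01 % βNAD, 37°C, 7 days. S.au (agar dilution): Mueller Hinton agar, 37°C, 20 to 24 hours. P.pis: heart infusion agar + 1.5 % NaCl, 25°C, 40 to 48 hours. All strains animal-origin.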

For assay [2], the system named is Mycoplasma synoviae (MS) F10-2as. In outline: as §1
For assay [3], the system named is Mycoplasma gallisepticum (MG) T-7-T, TS-resistant strain isolated from the field.
In assay [4] the test system is Mycoplasma hyopneumoniae (Mh) ST-11.
Assay [5] deals with Mycoplasma gallisepticum (MG) S6.

For the molecule `Cl.Nc1c(F)c(N2C[C@@H]3CC[C@@H](N)[C@@H]3C2)c(F)c2c1c(=O)c(C(=O)O)cn2C1CC1` (relative stereo) [I-16], in assay [1], the “In vitro Sensitivity Test MS 1853” value is 0.39 µg/mL. Besides, in assay [2], the “In vitro Sensitivity Test MS F10-2as” value came to 0.2 µg/ml. Further, the “In vitro Sensitivity Test MG T-7-T” value in assay [3] was determined as 0.00313 µg/mL. Also, in assay [4], the “In vitro Sensitivity Test Mh ST-11” value was less than 0.025 µg/mL. Further, the “In vitro Sensitivity Test MG S6” value in assay [5] was less than 0.0313 µg/mL.
